According to patent US10626148B2, “Glycopeptides conjugates and uses thereof” (priority 2015, dated 2020):
Where two headings read alike, the source gives them in different places.

What was measured:
[1] = system: Methicillin-resistant S. aureus (ATCC 33591); experiment: MIC, micro-dilution broth, MRSA; format: cell-based
Procedure: (§1) Test compounds were assayed in a micro-dilution broth format. Stock solutions were made by serially diluting the compounds using autoclaved millipore water or broth media. The antibacterial activity of the compounds was determined against gram positive bactreia like methicillin-resistant S. aureus (MRSA), vancomycin-intermediate-resistant S. aureus (VISA), vancomycin-sensitive E. faecium (VSE), vancomycin-resistant E. faecalis and vancomycin-resistant E. faecium (VRE). Antibacterial activity of dipicolyl-vancomycin conjugate conjugate (4) in combination with meropemem was determined against gram-negative bacteria such as K. pneumoniae ATCC BAA2146, clinical isolates K. pneumoniae R3949, K. pneumoniae R3934, E. coli R3336 and A. baumanii R676. Bacteria, to be tested, were grown for about 10 h in the suitable media, MRSA, VISA and gram negative bacteria were grown in Yeast-dextrose broth (about 1 g of beef extract, about 2 g of yeast extract, about 5 g of peptone and about 5 g of NaCl in about 1000 mL of sterile distilled water (pH-7)). For solid media, about 5% agar was used along with above mentioned composition. VSE and VRE were cultured in Brain Heart Infusion broth (Himedia). The bacterial samples were freeze dried and stored at −80° C. About 5 μL of these stocks were added to about 3 mL of the nutrient broth or Brain Heart Infusion broth and the culture was grown for about 6 h at about 37° C. prior to the experiments. This 6 h grown culture gives about 10^9 cfu/mL and this was determined by spread plating method. The 6 h grown culture was diluted to give effective cell concentration of about 10^5 cfu/mL which was then used for determining MIC. Compounds were serially diluted, in sterile water (2-fold dilution is employed) in a way that the working concentration was about 10 μM for MRSA, and VSE while for VRE, VISA and gram negative bacteria; it was about 100 μM. About 50 μL of these serial dilutions were added to the wells of 96 well plate followed by the addition of about 150 μL of bacterial solution. The plates were then incubated at about 37° C., 150 rpm in the incubator and O.D at 620 nm was recorded at an interval of about 24 h using TECAN (Infinite series, M200 pro) Plate Reader. Each concentration had triplicate values and the whole experiment was done at least twice and the MIC value was determined by taking the average of triplicate O.D. values for each concentration and plotting it against concentration. The data was then subjected to sigmoidal fitting.

[2] = system: Vancomycin intermediate resistant S. aureus; experiment: MIC, micro-dilution broth, VISA; format: cell-based
Procedure: as §1

[3] = system: Vancomycin-sensitive E. faecium (ATCC 19634); experiment: MIC, micro-dilution broth, VSEm; format: cell-based
Procedure: as §1

[4] = system: Vancomycin-resistant E. faecium (VanA, ATCC 51559); experiment: MIC, micro-dilution broth, VREm; format: cell-based
Procedure: as §1

[5] = system: Vancomycin-resistant E. faecalis (VanA, ATCC 51575); experiment: MIC, micro-dilution broth, VREs; format: cell-based
Procedure: as §1

[6] = system: Staphylococci (MRSA and VISA) and Enterococci (VREm and VREs); experiment: Antibacterial activity, gram positive panel; format: cell-based; settings: VSEm
Procedure: (§2) Test compounds were assayed in a micro-dilution broth format. Stock solutions were made by serially diluting the compounds using autoclaved millipore water or broth media. The antibacterial activity of the compounds was determined against gram positive bactreia like methicillin-resistant S. aureus (MRSA), vancomycin-intermediate-resistant S. aureus (VISA), vancomycin-sensitive E. faecium (VSE), vancomycin-resistant E. faecalis and vancomycin-resistant E. faecium (VRE). Antibacterial activity of dipicolyl-vancomycin conjugate conjugate (4) in combination with meropemem was determined against gram-negative bacteria such as K. pneumoniae ATCC BAA2146, clinical isolates K. pneumoniae R3949, K. pneumoniae R3934, E. coli R3336 and A. baumanii R676. […] This 6 h grown culture gives about 10^9 cfu/mL and this was determined by spread plating method. […] The plates were then incubated at about 37° C., 150 rpm in the incubator and O.D at 620 nm was recorded at an interval of about 24 h using TECAN (Infinite series, M200 pro) Plate Reader. Each concentration had triplicate values and the whole experiment was done at least twice and the MIC value was determined by taking the average of triplicate O.D. values for each concentration and plotting it against concentration. […]

[7] = system: meropenem-resistant NDM-1 bacteria; experiment: Combination with meropenem against NDM-1 gram negative bacteria; format: cell-based; settings: in combination with meropenem
Procedure: as §2, with “R676. Bacteria, to be tested, were grown for about 10 h in the suitable media, MRSA, VISA and gram negative bacteria were grown in Yeast-dextrose broth (about 1 g of beef extract, about 2 g of yeast extract, about 5 g of peptone and about 5 g of NaCl in about 1000 mL of sterile distilled water (pH-7)).” for “R676.”
(§3) Then, the antibacterial activities of Dipicolyl-vancomycin conjugate (4) is checked in combination with meropenem against New-Delhi β-lactamase producing gram negative bacteria such as K. pneumoniae BAA2146, clinical isolates K. pneumoniae R3949, K. pneumoniae R3934, E. coli R3336 and A. baumanii R676. […] Further we have also evaluated the antibacterial activity of dipicolyl-vancomycin conjugate (4) in presence of zinc sulphate, wherein it forms dipicolyl-vancomycin-zinc complex (5).

VREs ATCC 51575 = format: in vivo, E. faecalis; settings: CD-1 mice, 12 mg/kg i.p. once daily, three doses
Procedure: Female CD-1 mice 6 to 8 weeks of age and weighing 20 to 25 g were used in this study. On day −7, all mice were injected intravenously (i.v.) with 0.2 mL of 0.2% λ-carrageenan to increase their susceptibility to bacterial renal infection. λ-Carrageenan increases mice susceptibility to renal infection following i.v. injection, possibly by forming a lattice structure in renal tissue and forming a support structure for bacterial attachment and growth. Bacterial strains that fail to cause renal infection in normal mice produce significant renal infections in λ-carrageenan-treated mice. On day 0, all mice were injected i.v. with 0.2 mL of the bacterial culture (VREs ATCC 51575, 10^8 CFU/mouse) through the tail vein. Four hours after the bacterial inoculation, mice were treated intraperitoneally (i.p.) with vancomycin, compound 4 and linezolid at 12 mg/kg of body weight or 0.2 mL of saline (0.9% NaCl) control (n=5). All the test compounds or saline were administered once daily for an additional two consecutive days for a total of three doses. All mice were sacrificed on day 3. Both kidneys from each mouse were removed aseptically and homogenized in 10 mL of saline. The dilutions of the homogenate were plated onto sheep blood agar plates, which were incubated overnight at about 37° C. The bacterial titer was expressed as log10 CFU/g of kidney weight.

[8] = system: NDM-1 expressing Escherichia coli R3336; experiment: microbe, parasite or virus in culture; format: cell-based; settings: for MIC: Escherichia coli
Procedure: as §1, §3

[9] = system: NDM-1 expressing Klebsiella pneumoniae ATCC BAA2146; experiment: microbe, parasite or virus in culture; format: cell-based; settings: for MIC: Klebsiella pneumoniae
Procedure: as §1, §3

[10] = system: NDM-1 expressing Klebsiella pneumoniae R3934; experiment: microbe, parasite or virus in culture; format: cell-based; settings: for MIC: Klebsiella pneumoniae
Procedure: as §1, §3

[11] = system: NDM-1 expressing Klebsiella pneumoniae R3949; experiment: microbe, parasite or virus in culture; format: cell-based; settings: for MIC: Klebsiella pneumoniae
Procedure: as §1, §3

[12] = system: meropenem-resistant NDM-1 K. pneumoniae R3934; experiment: Sepsis infection model in mice; format: in vivo; settings: CD-1 mice, i.p., 10 mg/kg alone, 1 h and 24 h post-infection
Procedure: Sepsis infection model: About six-week-old, female CD-1 mice (weight, ˜19-24 g) were used for the experiments. Mice were infected intraperitoneally (i.p.) with a dose of ˜10^6 CFU/mouse of meropenem-resistant NDM-1 K. pneumoniae R3934. Then, mice were treated twice at 1 h and 24 h post-infection with a specified i.p. dose of either saline, meropenem (10 mg/kg), compound 4 (10 mg/kg), or a combination of compound 4 (10 mg/kg) and meropenem (10 mg/kg). Here, colistin (5 mg/kg) was used as a positive control. Mice were euthanized after 48 h post-infection and then liver, spleen, kidney and lungs were collected to find out the bacterial density in these organs. Organs were placed into 10 ml sterile saline on ice, and then homogenized. The dilutions of the homogenate were plated onto agar plates, which were incubated for 24 h at 37° C. The bacterial titer was expressed as log10 CFU/g of organ weight.

NDM-1 enzyme = molecular target: T1, NDM-1 enzyme (Klebsiella pneumoniae, UniProt C7C422); experiment: NDM-1 enzyme inhibition, nitrocefin substrate; format: biochemical; settings: nitrocefin as substrate
T1 construct: made in house; host or cells: E. coli BL21 (DE3)
T1 sequence (C7C422 29-270, looked up, species assumed): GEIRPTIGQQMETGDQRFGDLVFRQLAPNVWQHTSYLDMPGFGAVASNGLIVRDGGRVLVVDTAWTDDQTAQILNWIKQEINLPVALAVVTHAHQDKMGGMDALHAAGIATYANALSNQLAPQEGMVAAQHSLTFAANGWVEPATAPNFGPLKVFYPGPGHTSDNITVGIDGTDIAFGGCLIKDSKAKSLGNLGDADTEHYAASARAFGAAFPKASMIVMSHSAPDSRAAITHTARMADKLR
Procedure: The NDM-1 was produced by E. coli BL21 (DE3) carrying pET30a-NDM-1 in LB medium. Initially, the purified NDM-1 enzyme (5 nM, HEPES buffer, pH-7.4) was supplemented with 20 μM ZnSO4 for 30 min. Next, the enzyme was pre-incubated with the inhibitor (compound 4) for 20 min prior to the initiation of the assay by the addition of the substrate (Nitrocefin, 30 μM). Assays were read in 96-well microplate format at 490 nm (absorbance) using TECAN plate reader (Infinite Pro.) at 37° C. IC50s were deduced from a plot of percent loss of activity versus inhibitor concentration.

MRSA = experiment: Resistance development study, serial passages; format: cell-based, S. aureus; settings: passaged at MIC/2
Procedure: MIC values of the compound 4 and vancomycin were determined against MRSA as described above. For the next day MIC experiment, the bacterial dilution was made by using the bacteria from sub-MIC concentration of the compounds (at MIC/2). Then, the concentration of this bacteria was adjusted to ˜10^5 CFU/mL based on OD600 and subjected to next MIC assay. After a 24 h incubation period, again bacterial dilution was prepared by using the bacterial suspension from sub-MIC concentration of the compound (at MIC/2) and assayed for another MIC experiment. The process was repeated for 25 passages, and the fold increase in MIC was determined. […] Thus bacteria were unable in acquiring resistance to this compound and this emphasizes the longevity of such compounds in clinics.

[13] = read-out: MIC of Meropenem in absence of compound 4
[14] = read-out: MIC of Meropenem in absence of compound 5

`NCCCCCCN(Cc1ccccn1)Cc1ccccn1` [Compound 3, dipicolyl-1,6-hexadiamine] was tested, and the MIC ([1]; MRSA) was greater than 100 µM, the MIC [2] was greater than 100 µM and the MIC ([3]; VSEm) was greater than 100 µM. For the same compound, the MIC ([4]; VREm) was greater than 100 µM, the MIC ([5]; VREs) was greater than 100 µM and the “antibacterial activity against any of the bacteria tested” value [6] was “did not show any activity”. For the same compound, the “resensitization of meropenem-resistant NDM-1 bacteria to meropenem (synergistic activity)” value [7] was “did not show any appreciable synergistic activity”.
For `CC(=O)NC[C@H]1CN(c2ccc(N3CCOCC3)c(F)c2)C(=O)O1` [Linezolid, linezolid, reference compound], the “reduction of bacterial titer from infected kidneys in comparison to vancomycin” value (VREs ATCC 51575) was “reduced bacterial titer from the infected kidneys more effectively” and the “CFU reduction compared to vehicle treated control (saline)” value (VREs ATCC 51575; kidneys) was roughly 4 log10 CFU.
In the case of `C[C@@H](O)[C@H]1C(=O)N2C(C(=O)O)=C(S[C@@H]3CN[C@H](C(=O)N(C)C)C3)[C@H](C)[C@H]12` [Meropenem, meropenem, reference compound], the MIC [8, 13] is reported as greater than 100 mg/L, the MIC [8, 14] is reported as greater than 100 mg/L and the MIC ([9]; ATCCBAA2146, read-out: MIC of Meropenem in absence of compound 4) is reported as greater than 100 mg/L. For the same compound, the MIC ([9]; ATCCBAA2146, read-out: MIC of Meropenem in absence of compound 5) was greater than 100 mg/L, the MIC [10, 13] was greater than 100 mg/L and the MIC [10, 14] was greater than 100 mg/L. The MIC [11, 13] was greater than 100 mg/L, the MIC [11, 14] was greater than 100 mg/L and the “in-vivo antibacterial activity, bacterial titer in organs” value [12] was “did not show any activity”.
`CN[C@H](CC(C)C)C(=O)N[C@H]1C(=O)N[C@@H](CC(N)=O)C(=O)N[C@H]2C(=O)N[C@H]3C(=O)N[C@H](C(=O)N[C@H](C(=O)O)c4cc(O)cc(O)c4-c4cc3ccc4O)[C@H](O)c3ccc(c(Cl)c3)Oc3cc2cc(c3O[C@H]2OC(CO)[C@H](O)C(O)C2O[C@H]2C[C@@](C)(N)[C@@H](O)C(C)O2)Oc2ccc(cc2Cl)[C@H]1O` (stereo partly shown) [Vancomycin, reference compound] showed an MIC ([1]; Staphylococcus aureus) of 0.63 µM, an MIC ([2]; Staphylococcus aureus) of 13 µM and an MIC ([3]; Enterococcus faecium, ATCC19634) of 0.6 µM. The MIC ([4]; Enterococcus faecium, ATCC51559) was 750 µM, the MIC ([5]; Enterococcus faecalis, ATCC51575) was 250 µM and the “effect on the activity of NDM-1” value (NDM-1 enzyme) was “no effect”. The “fold increase in MIC after 25 serial passages” value (MRSA) was roughly 16 fold and the “passages after which the MIC value started increasing” value (MRSA) was 7 passages.
Compound “Dipicolyl-Vancomycin-Zinc Complex [Compound 5]” has an MIC ([1]; MRSA) of 0.3 µM, an MIC [2] of 0.3 µM and an MIC ([3]; VSEm) of 0.31 µM. The MIC ([4]; VREm) was 0.6 µM, the “fold more active than vancomycin” value ([4]; VREm (VRE), ratio of MIC values) was “about 1250 fold” and the MIC ([5]; VREs) was 1.5 µM. The “MIC of Meropenem in presence of compound 5 at 12 μM” value (shortened to “MIC of Meropenem”) ([8]; Escherichia coli R3336) was greater than 100 mg/L, the “MIC of Meropenem” value ([9]; Klebsiella pneumoniae ATCC BAA2146) was greater than 100 mg/L and the “MIC of Meropenem” value ([10]; Klebsiella pneumoniae R3934) was greater than 100 mg/L. The “MIC of Meropenem” value ([11]; Klebsiella pneumoniae R3949) was greater than 100 mg/L and the “resensitization of meropenem-resistant NDM-1 bacteria to meropenem (synergistic activity)” value [7] was “did not restore the activity of meropenem”.
